Results published in patent US11572377B2, “Nucleotide analogs” (The Regents of the University of California, priority 2015, dated 2023).
Where two headings read alike, the source gives them in different places.

Legend:
[1] = Cytotoxicity assay in HEK-293 cells (CELLTITER-GLO); format: cell-based; conditions: human; for CC50 at 2 d: Table 3, CELLTITER-GLO, 2 d incubation; for CC50 at 48 h: Table B, parallel to HPV-11 antiviral assay
Protocol: (§1) An origin-containing low risk or high risk HPV plasmid was co-transfected with homologous E1 and E2 protein expression vectors into HEK 293 cells. At 4 h post-transfection, cells were treated with test compound dilutions and then incubated for 48 h. HPV origin plasmid replication was detected after digestion with DpnI and exonuclease III to remove unreplicated transfected plasmids. Remaining replicated DNA was quantified by quantitative real time PCR (qPCR). In a parallel experiment in uninfected cells cytotoxicity was determined by trypan blue exclusion or CELLTITER-GLO® to find the concentration that reduced viable cell number by 50% (CC50). CC50 values were determined by trypan blue exclusion or CELLTITER-GLO® and the selectivity index calculated (Selectivity index=CC50/EC50). The low risk HPV tested was HPV-11, and the high-risk HPV tested was HPV-16 and HPV-18.
Cytotoxicity Assays in HEK-293 cells. Cytotoxicity assays are performed in concurrently with every antiviral assay using the same cell line and media to ensure the same compound exposure. For the antiviral studies against HPV11 in HEK-293 cells, transfected cells are seeded in duplicate plates. Following a 2 h exposure, compound dilutions are prepared in both the antiviral plate and the duplicate cytotoxicity plate. At 48 h following compound addition, CELLTITE-GLO® (Promega) is added to each well and luminescence is determined on a luminometer. Concentrations of compounds sufficient to reduce cell viability by 50% are calculated from the experimental data (CC50 values).

[2] = Cytotoxicity assay in primary human foreskin fibroblast cells (CELLTITER-GLO); format: cell-based; conditions: Table 3, CELLTITER-GLO, 7 d incubation
Protocol: Cytotoxicity Assays in Primary Human Foreskin Fibroblast Cells. Cytotoxicity was also evaluated in human foreskin fibroblast (HFF) cells as they are a highly sensitive indicator of toxicity in a standard assay with 7 d of compound exposure. A total of 4000 cells/well are seeded in 384-well plates in cell culture media containing 2% fetal bovine serum and antibiotics. Following a 24 h incubation, 5-fold compound dilutions are performed in duplicate wells directly in the plates containing monolayers of HFF cells. At 7 d following compound addition, CELLTITER-GLO® reagent is added to each well and resulting luminescence is measured on a luminometer to assess the number of viable cells in each well. Data are then used to calculate CC50 values.

[3] = test system: HPV-11; test: Low risk HPV assay: HPV origin plasmid replication in HEK 293 cells (qPCR); format: cell-based, human papillomavirus
Protocol: as §1

[4] = test system: HPV-16 and HPV-18; test: High risk HPV assay: HPV origin plasmid replication in HEK 293 cells (qPCR); format: cell-based, human papillomavirus; conditions: read-out: EC50 High Risk
Protocol: as §1

[5] = primary human foreskin fibroblast (HFF) cells
[6] = Human papillomavirus, HEK293, Antiviral activity against HPV-11 in HEK-293 cells, read-out: EC50
[7] = Human papillomavirus, HEK293, Antiviral activity against HPV-11 in HEK-293 cells, read-out: EC90
[8] = low risk HPV (HPV-11), HEK 293 cells, 48 h incubation, read-out: EC50 Low Risk

For `Nc1ccn(C[C@@H](CO)OCP(=O)(O)O)c(=O)n1` [Cidofovir, cidofovir, reference compound], the CC50 at 2 d ([1]; HEK-293 cells) was over 300 µM, the CC50 at 48 h ([1]; HEK-293 cells) was over 300 µM and the CC50 at 7 d [2, 5] was over 300 µM. It also gave an EC50 [3, 6] of 41.7 ± 12 µM and an EC90 [3, 7] of over 300 µM.
Work on `CCCCCCCCCCCCCCCCCCOCC(COP(=O)(O)COCCn1cnc2c(=O)[nH]c(N)nc21)OCc1ccccc1` (stereo not drawn) [ODBG-PMEG, 1-O-Octadecyl-2-O-benzyl-sn-glyceryl PMEG] yielded an EC50 ([4]; Human papillomavirus, HEK293, 48 h) of 0.3 to 3.09 µM and an EC50 ([3]; Human papillomavirus, HEK293, low risk HPV (HPV-11), HEK 293 cells, 48 h incubation, read-out: EC50 Low Risk) of 0.3 to 3.09 µM.
`CCCCCCCCCCCCCCCCCCOCCOP(=O)(COCCn1cnc2c(=O)[nH]c(N)nc21)OCc1ccc(OC)c(Cl)c1` (stereo not drawn) [ODE-(3-Cl-4-OMe-Bn)-PMEG] showed a CC50 at 2 d ([1]; HEK-293 cells) of 8.87 ± 1.2 µM, a CC50 at 48 h ([1]; HEK-293 cells) of 8.31 ± 1.83 µM and a CC50 at 7 d [2, 5] of 2.27 ± 0.51 µM. For the same compound, the EC50 [3, 6] was 0.68 ± 0.62 µM and the EC90 [3, 7] was 1.34 ± 0.78 µM.
In the case of `CCCCCCCCCCCCCCCCCCOCCOP(=O)(COCCn1cnc2c(=O)[nH]c(N)nc21)OCc1cccc(Cl)c1` (stereo not drawn) [ODE-(3-Cl-Bn)-PMEG], the CC50 at 2 d ([1]; HEK-293 cells) is reported as 1 ± 0.16 µM, the CC50 at 48 h ([1]; HEK-293 cells) is reported as 1.11 ± 0.27 µM and the CC50 at 7 d [2, 5] is reported as 4.65 ± 1.73 µM. It also gave an EC50 [3, 6] of 0.22 ± 0.19 µM and an EC90 [3, 7] of over 0.4 µM.
Compound `CCCCCCCCCCCCCCCCCCOCCOP(=O)(COCCn1cnc2c(=O)[nH]c(N)nc21)OCc1ccc(OC)c(F)c1` (stereo not drawn) [ODE-(3-F-4-OMe-Bn)-PMEG] has a CC50 at 2 d ([1]; HEK-293 cells) of 13.1 ± 5.17 µM, a CC50 at 48 h ([1]; HEK-293 cells) of 14.2 ± 9.48 µM and a CC50 at 7 d [2, 5] of 1.72 ± 0.66 µM. The EC50 [3, 6] was 0.18 ± 0.04 µM and the EC90 [3, 7] was 0.99 ± 0.13 µM.
`CCCCCCCCCCCCCCCCCCOCCOP(=O)(COCCn1cnc2c(=O)[nH]c(N)nc21)OCc1cccc(F)c1` (stereo not drawn) [ODE-(3-F-Bn)-PMEG] showed a CC50 at 2 d ([1]; HEK-293 cells) of 2.16 ± 0.36 µM, a CC50 at 48 h ([1]; HEK-293 cells) of 1.74 ± 0.03 µM and a CC50 at 7 d [2, 5] of 6.88 ± 4.92 µM. It also gave an EC50 [3, 6] of 0.26 µM and an EC90 [3, 7] of 1.59 ± 0.57 µM.
With `CCCCCCCCCCCCCCCCCCOCCOP(=O)(COCCn1cnc2c(=O)[nH]c(N)nc21)OCc1ccc(C)cc1` (stereo not drawn) [ODE-(4-Me-Bn)-PMEG] the CC50 at 2 d ([1]; HEK-293 cells) was 32 ± 8.14 µM, the CC50 at 48 h ([1]; HEK-293 cells) was 23.8 ± 19.5 µM and the CC50 at 7 d [2, 5] was 6.02 ± 3.79 µM. It also gave an EC50 [3, 6] of 0.93 ± 0.91 µM and an EC90 [3, 7] of 7 ± 3.45 µM.
In the case of `CCCCCCCCCCCCCCCCCCOCCOP(=O)(O)COCCn1cnc2c(=O)[nH]c(N)nc21` [ODE-PMEG, Octadecyloxyethyl-Phosphonomethoxyethylguanine, reference compound], the EC50 ([4]; high risk HPV (HPV-16 and HPV-18), HEK 293 cells, 48 h incubation) is reported as under 0.3 µM and the EC50 [3, 8] is reported as under 0.3 µM.
For `CCOC(=O)[C@H](C)NP(=O)(COCCn1cnc2c(=O)[nH]c(N)nc21)N[C@@H](C)C(=O)OCC` [PMEG bisamidate, 9-[2-(bis-(ethyloxy-L-alaninyl)-phosphonomethoxy)ethyl]guanine], the CC50 at 2 d ([1]; HEK-293 cells) was over 100 µM, the CC50 at 48 h ([1]; HEK-293 cells) was over 100 µM and the CC50 at 7 d [2, 5] was over 100 µM. The EC50 [3, 6] was 5.04 ± 7.01 µM and the EC90 [3, 7] was over 100 µM.
`CCOC(=O)[C@H](C)NP(=O)(COCCn1cnc2c(=O)[nH]c(N)nc21)Oc1ccccc1` (stereo partly drawn) [PMEG phenoxy amidate] showed a CC50 at 2 d [1] of over 100 µM, a CC50 at 48 h ([1]; HEK-293 cells) of over 100 µM and a CC50 at 7 d ([2]; read-out: CC50 HFF (7 d incubation)) of 70.9 ± 4.07 µM. The EC50 ([3]; Human papillomavirus, HEK293) was 7.56 ± 0.63 µM and the EC90 ([3]; Human papillomavirus, HEK293) was over 100 µM.
`Nc1nc2c(ncn2CCOCP(=O)(O)O)c(=O)[nH]1` [PMEG, 9-(2-phosphonylmethoxyethyl)guanine, reference compound] showed an EC50 [3, 8] of 3 to 30 µM.
